# In ChEMBL document CHEMBL1201862, “PubChem BioAssay data set” (2004):
# Activity calls are given as the source filed them.
# Experiments:
# [1] = HEp-2 cell cytotoxicity, dose response, cytotoxicity control for RSV inhibitor project, HTS (AID 2410); assay type: functional; details: human respiratory syncytial virus
# [2] = molecular target: T1, Sentrin-specific protease 8 (Homo sapiens, UniProt Q96LD8); assay type: functional;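 also: luminescence read-out of SENP8 inhibition, dose-response confirmation following an ultra-high-throughput screen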
# T1 sequence (Q96LD8 whole entry): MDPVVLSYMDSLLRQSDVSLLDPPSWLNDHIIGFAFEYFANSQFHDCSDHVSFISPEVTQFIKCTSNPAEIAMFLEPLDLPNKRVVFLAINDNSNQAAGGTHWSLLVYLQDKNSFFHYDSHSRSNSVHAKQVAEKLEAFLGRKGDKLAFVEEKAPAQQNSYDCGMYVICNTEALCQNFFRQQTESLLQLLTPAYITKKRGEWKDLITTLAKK
# [3] = molecular target: T2, Sentrin-specific protease 6 (Homo sapiens, UniProt Q9GZR1); assay type: functional;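 also: Luminescence-based dose-response confirmatory assay of SENP6 inhibition, following up an ultra-high-throughput screen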
# T2 sequence (Q9GZR1 whole entry): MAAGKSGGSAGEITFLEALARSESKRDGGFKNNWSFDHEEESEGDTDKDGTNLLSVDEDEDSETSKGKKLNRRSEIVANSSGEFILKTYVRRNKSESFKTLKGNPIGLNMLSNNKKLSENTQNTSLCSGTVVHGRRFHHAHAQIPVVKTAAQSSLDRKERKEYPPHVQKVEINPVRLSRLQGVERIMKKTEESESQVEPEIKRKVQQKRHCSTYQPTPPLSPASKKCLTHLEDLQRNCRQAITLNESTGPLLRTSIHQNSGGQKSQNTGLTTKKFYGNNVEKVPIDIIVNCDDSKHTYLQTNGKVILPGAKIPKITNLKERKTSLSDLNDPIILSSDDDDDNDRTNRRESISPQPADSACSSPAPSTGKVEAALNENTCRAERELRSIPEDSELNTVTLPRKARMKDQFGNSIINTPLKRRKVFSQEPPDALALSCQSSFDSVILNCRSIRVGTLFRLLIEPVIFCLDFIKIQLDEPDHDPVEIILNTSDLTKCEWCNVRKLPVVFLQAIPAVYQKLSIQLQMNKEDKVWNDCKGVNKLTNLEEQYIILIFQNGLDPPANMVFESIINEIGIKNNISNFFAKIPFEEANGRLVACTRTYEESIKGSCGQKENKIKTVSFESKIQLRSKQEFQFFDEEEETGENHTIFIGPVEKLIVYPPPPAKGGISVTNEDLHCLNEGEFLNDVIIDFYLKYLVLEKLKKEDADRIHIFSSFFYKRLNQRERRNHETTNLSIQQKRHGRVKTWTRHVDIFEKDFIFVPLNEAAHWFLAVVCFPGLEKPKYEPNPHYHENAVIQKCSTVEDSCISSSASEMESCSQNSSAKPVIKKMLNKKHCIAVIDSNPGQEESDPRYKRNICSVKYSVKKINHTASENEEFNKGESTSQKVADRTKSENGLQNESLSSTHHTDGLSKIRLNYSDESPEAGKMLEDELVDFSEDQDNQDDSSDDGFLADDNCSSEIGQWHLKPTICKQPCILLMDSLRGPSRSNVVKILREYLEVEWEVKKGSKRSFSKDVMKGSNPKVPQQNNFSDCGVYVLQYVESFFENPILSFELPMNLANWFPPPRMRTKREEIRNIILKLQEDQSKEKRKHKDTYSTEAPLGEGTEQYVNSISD
# [4] = molecular target: T3, Sentrin-specific protease 7 (Homo sapiens, UniProt Q9BQF6); assay type: functional;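 also: Luminescence-based dose-response confirmation of ultra-high-throughput screening hits, measuring inhibition of SENP7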
# T3 sequence (Q9BQF6 whole entry): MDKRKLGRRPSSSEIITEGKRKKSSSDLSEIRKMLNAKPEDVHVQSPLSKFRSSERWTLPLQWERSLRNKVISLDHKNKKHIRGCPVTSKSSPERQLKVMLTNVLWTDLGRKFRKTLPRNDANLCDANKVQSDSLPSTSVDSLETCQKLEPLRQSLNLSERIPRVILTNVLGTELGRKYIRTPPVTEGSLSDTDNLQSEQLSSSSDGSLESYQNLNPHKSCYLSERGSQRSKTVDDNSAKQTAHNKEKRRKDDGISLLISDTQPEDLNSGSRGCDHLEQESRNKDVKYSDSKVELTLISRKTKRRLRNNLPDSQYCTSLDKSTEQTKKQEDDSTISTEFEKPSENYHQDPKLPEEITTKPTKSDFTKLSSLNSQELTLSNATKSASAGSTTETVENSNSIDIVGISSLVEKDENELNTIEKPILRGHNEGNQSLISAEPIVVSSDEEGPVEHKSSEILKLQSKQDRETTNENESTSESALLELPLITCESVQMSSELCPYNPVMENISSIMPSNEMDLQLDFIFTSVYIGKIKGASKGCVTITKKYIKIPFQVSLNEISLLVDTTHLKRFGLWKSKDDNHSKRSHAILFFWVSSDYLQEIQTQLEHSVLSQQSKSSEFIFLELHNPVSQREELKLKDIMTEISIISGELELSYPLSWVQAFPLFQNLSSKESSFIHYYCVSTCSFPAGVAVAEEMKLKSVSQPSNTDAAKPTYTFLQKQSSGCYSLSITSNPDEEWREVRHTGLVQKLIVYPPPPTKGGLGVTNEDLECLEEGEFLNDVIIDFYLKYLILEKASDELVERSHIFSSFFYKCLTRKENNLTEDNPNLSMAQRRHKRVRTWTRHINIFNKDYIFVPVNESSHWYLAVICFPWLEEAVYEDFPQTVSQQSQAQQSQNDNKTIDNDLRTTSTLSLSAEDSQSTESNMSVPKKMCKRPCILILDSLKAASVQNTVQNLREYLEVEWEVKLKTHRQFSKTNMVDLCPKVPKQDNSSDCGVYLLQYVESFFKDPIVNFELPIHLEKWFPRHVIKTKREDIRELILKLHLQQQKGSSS
# [5] = A Cell Based Secondary Assay To Explore Cytotoxicity of Compounds that Sensitize Mycobacterium Tuberculosis to Beta-Lactam Antibiotics.; assay type: functional
# Caspase-3 = molecular target: T4, Caspase-3 (Homo sapiens, UniProt P42574); assay type: functional;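 also: Dose-response selectivity test against caspase-3 for candidate inhibitors of sentrin-specific proteases (SENPs)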
# T4 sequence (P42574 whole entry): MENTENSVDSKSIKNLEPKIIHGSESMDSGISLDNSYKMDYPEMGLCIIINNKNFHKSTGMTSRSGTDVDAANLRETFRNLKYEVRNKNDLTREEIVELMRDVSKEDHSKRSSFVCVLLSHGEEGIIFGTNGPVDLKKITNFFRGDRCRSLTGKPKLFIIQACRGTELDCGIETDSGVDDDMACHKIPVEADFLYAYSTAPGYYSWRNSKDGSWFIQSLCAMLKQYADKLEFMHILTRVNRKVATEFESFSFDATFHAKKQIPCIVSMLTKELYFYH
# Large T antigen = Large T antigen (Simian virus 40, UniProt P03070); assay type: functional, Betapolyomavirus macacae;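 also: Confirmatory-stage PubChem screen for compounds that inhibit SV40 T antigen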
# Sequence of Large T antigen (P03070 whole entry): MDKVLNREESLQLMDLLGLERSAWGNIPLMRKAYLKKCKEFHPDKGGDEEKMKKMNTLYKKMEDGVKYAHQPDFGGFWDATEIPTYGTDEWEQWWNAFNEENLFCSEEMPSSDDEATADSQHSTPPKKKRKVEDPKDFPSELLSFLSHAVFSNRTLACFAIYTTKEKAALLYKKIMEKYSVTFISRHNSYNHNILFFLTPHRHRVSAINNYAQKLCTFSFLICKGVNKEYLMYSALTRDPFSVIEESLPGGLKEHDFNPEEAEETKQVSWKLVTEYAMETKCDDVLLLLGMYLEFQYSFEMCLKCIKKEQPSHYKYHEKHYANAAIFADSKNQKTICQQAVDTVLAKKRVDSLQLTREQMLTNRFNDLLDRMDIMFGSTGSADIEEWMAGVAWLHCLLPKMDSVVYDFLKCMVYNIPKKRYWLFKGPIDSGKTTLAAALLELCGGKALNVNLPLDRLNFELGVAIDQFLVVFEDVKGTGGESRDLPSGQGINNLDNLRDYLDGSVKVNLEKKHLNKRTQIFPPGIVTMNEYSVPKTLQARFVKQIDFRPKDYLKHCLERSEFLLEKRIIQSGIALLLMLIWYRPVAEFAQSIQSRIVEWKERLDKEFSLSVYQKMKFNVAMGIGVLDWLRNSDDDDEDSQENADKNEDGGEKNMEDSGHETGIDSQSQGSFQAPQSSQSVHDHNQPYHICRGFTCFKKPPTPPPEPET
# SN12K1 = test: cells; assay type: functional; details: Homo sapiens
# [6] = molecular target: T5, Rac GTPase-activating protein 1 (Homo sapiens, UniProt Q9H0H5); test: MgcRacGAP GTPase-activating activity inhibitors, confirmation, biochemical, ADP Hunter fluorescence, primary and confirmatory (AID 624330); assay type: functional
# T5 sequence (Q9H0H5 whole entry): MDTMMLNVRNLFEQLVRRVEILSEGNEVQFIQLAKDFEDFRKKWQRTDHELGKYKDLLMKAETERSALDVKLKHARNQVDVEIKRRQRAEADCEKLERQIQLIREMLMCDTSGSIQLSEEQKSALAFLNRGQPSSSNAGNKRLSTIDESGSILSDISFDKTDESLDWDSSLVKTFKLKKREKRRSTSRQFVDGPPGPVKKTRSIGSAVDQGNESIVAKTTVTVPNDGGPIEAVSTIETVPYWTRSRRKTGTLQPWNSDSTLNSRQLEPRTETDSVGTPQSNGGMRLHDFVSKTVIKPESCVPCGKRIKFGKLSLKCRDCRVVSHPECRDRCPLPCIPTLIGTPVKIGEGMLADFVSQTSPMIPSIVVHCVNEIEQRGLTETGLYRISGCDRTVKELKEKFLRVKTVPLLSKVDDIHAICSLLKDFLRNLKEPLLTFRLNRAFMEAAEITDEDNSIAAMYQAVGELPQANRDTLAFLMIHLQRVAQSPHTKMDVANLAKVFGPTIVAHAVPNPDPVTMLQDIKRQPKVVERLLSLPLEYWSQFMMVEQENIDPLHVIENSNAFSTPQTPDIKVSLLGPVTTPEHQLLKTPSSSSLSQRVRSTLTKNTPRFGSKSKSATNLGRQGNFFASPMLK
smiles,measurement,setting,value
COc1ccc(Nc2nc(-c3cccs3)nc3ccccc23)c(OC)c1,CC50,[1],32.9 µM (active)
CSc1nc(C(=O)N2CCc3c([nH]c4ccccc34)C2c2ccccn2)cs1 (centres undefined),CC50,[1],30.1 µM (active)
Cc1ccc(O)c(-c2cc(-c3ccccc3F)[nH]n2)c1,IC50,[2],4.59 µM (active)
same,IC50,[3],21.9 µM (active)
same,IC50,[4],3.4 µM (active)
same,CC50,[5],> 40 µM (active)
same,IC50,Caspase-3,31.9 µM (active)
CCCOC(=O)c1cc(-c2ccc(C=O)o2)ccc1Cl,CC50,[1],36.9 µM (active)
CCOC(=O)C1=C(C)N(c2ccccc2)C(=O)/C1=C\c1ccc(O)c(OC)c1,IC50,Large T antigen,47.1 µM (active)
COc1ccc(-c2nc(O)c3cnccn23)cc1,IC50,Large T antigen,24.2 µM (active)
Cc1ccc(-n2nc3c(=O)n(CCCC(=O)NCc4cccc(F)c4)nc(C)c3c2C)cc1,CC50,[1],> 50 µM (active)
NC(=NOC(=O)c1ccc(Cl)cc1Cl)c1ccc(Cl)cc1,IC50,[2],> 100 µM (inactive)
same,IC50,[3],> 100 µM (inactive)
same,IC50,[4],9.34 µM (active)
same,IC50,Caspase-3,35.6 µM (active)
CCOC(=O)C1C(=O)C=C(c2ccc(C)cc2)CC1c1ccccc1 (centres undefined),CC50,[1],35.4 µM (active)
C=C(C)c1sc(-c2ccc(Cl)cc2)nc1C,IC50,[2],69.1 µM (active)
same,IC50,[3],21.4 µM (active)
same,IC50,[4],6.67 µM (active)
same,IC50,Caspase-3,13.4 µM (active)
CC(C)(c1cc(Br)c(O)c(Br)c1)c1cc(Br)c(O)c(Br)c1,CC50,[1],24.9 µM (active)
Nc1ccn(C2C=C(CO)C(O)C2O)c(=O)c1 (centres undefined),GI50,SN12K1,> 625 µM (inactive)
CCc1nnc(S)n1/N=C/c1ccc(N(C)c2ccccc2)cc1,CC50,[1],28.1 µM (active)
CCNc1nc(NCC)nc(N/N=C/c2ccc(O)c(OC)c2)n1,IC50,Large T antigen,11 µM (active)
COc1ccc(/C=N\NC(=O)c2ccc(O)nn2)cc1O,IC50,[6],26.5 µM (active)
same,IC50,Large T antigen,14.3 µM (active)
N=C1/C(=N\Nc2ccccc2F)C(=O)NN1c1ccccc1,IC50,[2],> 100 µM (inactive)
same,IC50,[3],2.09 µM (active)
same,IC50,[4],2.52 µM (active)
same,IC50,Caspase-3,16.4 µM (active)
Nc1nc2ccccc2n1/N=C/c1ccc(Br)cc1,IC50,[2],5.66 µM (active)
same,IC50,[3],5.96 µM (active)
same,IC50,[4],4.21 µM (active)
same,IC50,Caspase-3,16.1 µM (active)
